This is an account of results in patent US4256748A, “Imidazo[2,1-b]quinazolin-2(3H)-ones and pharmaceutical compositions for treatment and prophylaxis of cardiac insufficiency and cardiac failure” (Hoffmann-La Roche Inc., priority 1977, dated 1981).

Structures can show the parent of a compound that is named as a salt.

Data set [1] has as its system blood platelet aggregation. Kind of data set: Collagen-induced blood platelet aggregation, rabbit plasma (aggregometer method of BORN). In kind it is cell-based. As to conditions: Oryctolagus cuniculus, 1 min, 37° C., 1 minute, maximum aggregation velocity, read-out: EC 50, collagen-induced blood platelet aggregation, rabbit plasma. The method, then: (§1) The maximum aggregation velocity was taken as the test parameter and the effective concentration (EC50) was ascertained from dosage-activity curves. Rabbit plasma was obtained by centrifugation from arterial blood treated with citrate (9 mM). 1 ml. of plasma was treated with 10 μl of test solution and the mixture was incubated at 37° C. for 1 minute, whereupon 8 μl of collagen-fibril suspension or 10 μl. of adenosine diphosphate (ADP) in 10^-4 N sodium chloride solution were added. Plasma incubated with dimethylsulfoxide served as the control. |Collagen- and ADP-induced blood platelet aggregation

In data set [2] the test system is blood platelet aggregation. Kind of data set: ADP-induced blood platelet aggregation, rabbit plasma (aggregometer method of BORN). The class given is cell-based. As to conditions: Oryctolagus cuniculus, 1 min, 37° C., 1 minute, maximum aggregation velocity, read-out: EC 50, ADP-induced blood platelet aggregation, rabbit plasma. The procedure:
as §1

The subject of data set [3] is blood platelet aggregation. Kind of data set: Collagen-induced blood platelet aggregation, human plasma (aggregometer method of BORN). The class given is cell-based. As to conditions: 10 min, 37° C., maximum aggregation velocity, read-out: EC 50, collagen-induced blood platelet aggregation, human plasma. The method, then:
The maximum aggregation velocity was taken as the test parameter and the effective concentration (EC50) was ascertained from dosage-activity curves. Human plasma was obtained by centifugation from venous blood treated with citrate (10.6 mM). 0.18 ml. of plasma was treated with 10 μl of an aqueous suspension of the test substance and the mixture was incubated at 37° C. for 10 minutes, whereupon the aggregation was initiated by the addition of 10 μl of collagen-fibril suspension. |Collagen- and ADP-induced blood platelet aggregation

A further data set concerns conscious sheepdogs. Kind of data set: Positive inotropic activity and heart frequency after oral administration to conscious sheepdogs. The class given is in vivo. The procedure:
The positive inotropic activity was measured after the oral administration of a test substance to conscious sheepdogs. For this purpose, the animals are provided with an implanted pressure-telemetry system, so that the pressure receiver is fixed in the left ventricle. The left ventricular pressure is sent from the animal via the implanted radio transmitter and received via a suitable antenna and receiver system, demodulated and amplified. By differentiation of the ascending side of the left ventricular pressure (LVP), the maximum pressure increase rate (dLVP/dtmax) which represents the contractility parameter is calculated. Simultaneously, the heart frequency is recorded via a cardiotachograph. Under the heading inotropy in Table II, the percentage variation (Δ%) of dLVP/dtmax and the duration of activity in minutes (min) are indicated. Under the heading tachycardia in Table II, the percentage variations of the heart frequency (Δ%) after administration of the test substance and the duration of activity in minutes (min) are indicated.

With `Cc1cccc2c1CN1C(=N2)NC(=O)[C@H]1C.Cl` [D-1,5-dihydro-3,6-dimethylimidazo[2,1-b]-quinazolin-2(3H)-one hydrochloride], in data set [1], the EC50 came out at 0.19 µM. For the same compound, the EC50 in data set [2] stood at 2.2 µM. The EC50 in data set [3] came out at 2.3 µM. Besides, in the data set with conscious sheepdogs (10 mg/kg), the “Heart frequency Min (duration of activity; tachycardia)” value (from here on “Heart frequency Min”) was found to be 480 min, the “Heart frequency Δ % (percentage variation; tachycardia)” value turned out to be 63%, the “Inotropy Min (duration of activity)” value amounted to 440 min and the “Inotropy Δ % (percentage variation of dLVP/dtmax)” value stood at 82%.
For the compound `Cc1ccc2c(c1)CN1C(=N2)NC(=O)[C@H]1C` [D-1,5-dihydro-3,7-dimethylimidazo[2,1-b]-quinazolin-2(3H)-one hydrochloride], the EC50 in data set [1] is 3.1 µM; in data set [2], 19 µM; in data set [3] it was 3.4 µM.
Take `Cc1cccc2c1N=C1NC(=O)[C@@H](C)N1C2` [D-1,5-dihydro-3,9-dimethylimidazo[2,1-b]-quinazolin-2(3H)-one hydrochloride]: the figures for the EC50 in data set [1], in data set [2] and in data set [3] were 3 µM, 32 µM and 26 µM, respectively.
For the compound `C[C@@H]1C(=O)NC2=Nc3cccc(Cl)c3CN21.Cl` [D-6-chloro-1,5-dihydro-3-methyl-imidazo[2,1-b]quinazolin-2(3H)-one hydrochloride], in the data set on conscious sheepdogs (5 mg/kg), the “Heart frequency Min” value was 115 min, the “Heart frequency Δ % (percentage variation; tachycardia)” value is reported as 28%, the “Inotropy Min (duration of activity)” value stood at 145 min and the “Inotropy Δ % (percentage variation of dLVP/dtmax)” value is on record as 93%.
Turning to `Cc1ccc2c(c1)CN1C(=N2)NC(=O)[C@@H]1C` [L-1,5-Dihydro-3,7-dimethyl-imidazo[2,1-b]quinazolin-2(3H)-one hydrochloride], the results for the EC50 in data set [1], in data set [2] and in data set [3] were 22 µM, 77 µM and 33 µM, respectively.
In the same order, the values of `Cc1cccc2c1CN1C(=N2)NC(=O)[C@@H]1C` [L-1,5-dihydro-3,6-dimethylimidazo[2,1-b]-quinazoline-2(3H)-one hydrochloride] are 0.93 µM, 11 µM and 6.2 µM.
In the case of `Cc1cccc2c1N=C1NC(=O)[C@H](C)N1C2` [L-1,5-dihydro-3,9-dimethylimidazo[2,1-b]quinazolin-2(3H)-one], the EC50 in data set [1] turned out to be 18 µM. Besides, the EC50 in data set [2] stood at 60 µM. In addition, the EC50 in data set [3] turned out to be 49 µM. In addition, in the data set with conscious sheepdogs (10 mg/kg), the “Heart frequency Min” value was 100 min, the “Heart frequency Δ % (percentage variation; tachycardia)” value stood at 16%, the “Inotropy Min (duration of activity)” value stood at 120 min and the “Inotropy Δ % (percentage variation of dLVP/dtmax)” value is given as 43%.
Take `Cc1cccc2c1CN1C(=N2)NC(=O)[C@@H]1CO` [L-1,5-dihydro-3-hydroxymethyl-6-methyl-imidazo[2,1-b]quinazoline-2(3H)-onehydrochloride]: the EC50 in data set [3] came to 14 µM.
